Here are results for nine compounds from patent publication US10577378B2, “EIF4A-inhibiting compounds and methods related thereto” (eFFECTOR Therapeutics, Inc., priority 2015, dated 2020).

Molecules are shown by their SMILES.

This assay deals with MDA-MB-231 human breast cancer cells. In words: Cell proliferation assay (CellTiter-Glo, 72 hours treatment). Type of assay: cell-based. Conditions: Homo sapiens; MDA-MB-231 cells, 72 hours at 37° C., CellTiter-Glo; read-out: MDA-MB-231 cell proliferation assay (IC50). In outline:
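IC50 categories: under 100 nM +++, 100–1000 nM ++, above 1000 nM +, derived by sigmoidal curve fitting of CellTiter-Glo luminescence. Cells plated at 2,500 per well, dosed the following day and exposed 72 h at 37 °C versus DMSO control.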
For orientation: Cellular ATP, detected with luciferase, serves as a proxy for viable cell number.

In the case of `COc1cncc2c1[C@]1(O)[C@@H](CO)C[C@@H](c3ccccc3)[C@]1(c1ccc(CN)cc1)O2` (racemic) [234F, rac-(4bR,5R,7S,7aR)-7a-(4-(aminomethyl)phenyl)-5-(hydroxymethyl)-4-methoxy-7-phenyl-5,6,7,7a-tetrahydro-4bH-cyclopenta[4,5]furo[2,3-c]pyridin-4b-ol], the IC50 was > 1000 nM.

For `COc1cncc2c1[C@]1(O)[C@H](O)[C@H](C(=O)N3CC4(COC4)C3)[C@@H](c3ccccc3)[C@]1(c1ccc(Br)cc1)O2` (racemic) [235F, Rac-((4bS,5R,6R,7S,7aR)-7a-(4-bromophenyl)-4b,5-dihydroxy-4-methoxy-7-phenyl-4b,6,7,7a-tetrahydro-5H-cyclopenta[4,5]furo[2,3-c]pyridin-6-yl)(2-oxa-6-azaspiro[3.3]heptan-6-yl)methanone], the IC50 is < 100 nM.

As to `COc1cncc2c1[C@]1(O)[C@H](O)[C@H](CN3CC4(COC4)C3)[C@@H](c3ccccc3)[C@]1(c1ccc(C#N)cc1)O2` (racemic) [236F, Rac-4-((4bS,5R,6S,7S,7aR)-6-((2-oxa-6-azaspiro[3.3]heptan-6-yl)methyl)-4b,5-dihydroxy-4-methoxy-7-phenyl-4b,5,6,7-tetrahydro-7aH-cyclopenta[4,5]furo[2,3-c]pyridin-7a-yl)benzonitrile], the IC50 lay in the range of 100 to 1000 nM.

Take `COc1cncc2c1[C@]1(O)[C@H](O)[C@H](C(=O)N(C)C3COC3)[C@@H](c3ccccc3)[C@]1(c1ccc(Br)cc1)O2` (racemic) [237F, Rac-(4bS,5R,6R,7S,7aR)-7a-(4-bromophenyl)-4b,5-dihydroxy-4-methoxy-N-methyl-N-(oxetan-3-yl)-7-phenyl-4b,6,7,7a-tetrahydro-5H-cyclopenta[4,5]furo[2,3-c]pyridine-6-carboxamide]: the IC50 was < 100 nM.

`COc1cncc2c1[C@]1(O)[C@H](O)[C@H](CN(C)C3COC3)[C@@H](c3ccccc3)[C@]1(c1ccc(C#N)cc1)O2` (racemic) [238F, Rac-4-((4bS,5R,6S,7S,7aR)-4b,5-dihydroxy-4-methoxy-6-((methyl(oxetan-3-yl)amino)methyl)-7-phenyl-4b,5,6,7-tetrahydro-7aH-cyclopenta[4,5]furo[2,3-c]pyridin-7a-yl)benzonitrile]: the IC50 lay within 100 to 1000 nM.

On to `COc1cncc2c1[C@]1(O)[C@H](O)[C@H](C(=O)NC3COC3)[C@@H](c3ccccc3)[C@]1(c1ccc(Br)cc1)O2` (racemic) [239F, Rac-(4bS,5R,6R,7S,7aR)-7a-(4-bromophenyl)-4b,5-dihydroxy-4-methoxy-N-(oxetan-3-yl)-7-phenyl-4b,6,7,7a-tetrahydro-5H-cyclopenta[4,5]furo[2,3-c]pyridine-6-carboxamide], for which the IC50 was < 100 nM.

Regarding `COc1cncc2c1[C@]1(O)[C@H](O)[C@H](CNC3COC3)[C@@H](c3ccccc3)[C@]1(c1ccc(C#N)cc1)O2` (racemic) [240F, Rac-4-((4bS,5R,6S,7S,7aR)-4b,5-dihydroxy-4-methoxy-6-((oxetan-3-ylamino)methyl)-7-phenyl-4b,5,6,7-tetrahydro-7aH-cyclopenta[4,5]furo[2,3-c]pyridin-7a-yl)benzonitrile], the IC50 lay in the range of 100 to 1000 nM.

As for `COc1cncc2c1[C@]1(O)[C@H](O)[C@H](C(=O)NCc3ccnn3C)[C@@H](c3ccccc3)[C@]1(c1ccc(Br)cc1)O2` (racemic) [241F, rac-(4bS,5R,6R,7S,7aR)-7a-(4-bromophenyl)-4b,5-dihydroxy-4-methoxy-N-((1-methyl-1H-pyrazol-5-yl)methyl)-7-phenyl-4b,6,7,7a-tetrahydro-5H-cyclopenta[4,5]furo[2,3-c]pyridine-6-carboxamide], the IC50 was < 100 nM.

As to `COc1cncc2c1[C@]1(O)[C@H](O)[C@H](CNCc3ccnn3C)[C@@H](c3ccccc3)[C@]1(c1ccc(C#N)cc1)O2` (racemic) [242F, Rac-4-((4bS,5R,6S,7S,7aR)-4b,5-dihydroxy-4-methoxy-6-((((1-methyl-1H-pyrazol-5-yl)methyl)amino)methyl)-7-phenyl-4b,5,6,7-tetrahydro-7aH-cyclopenta[4,5]furo[2,3-c]pyridin-7a-yl)benzonitrile], the IC50 lay within 100 to 1000 nM.
